Experimental data as given in PubChem BioAssay (NCI).
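How tested: cells in 96-well plates exposed to compound for 48 hours at five concentrations. TGI: concentration producing complete growth inhibition.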

Tests used:
Test in all cases: NCI tumour cell line growth inhibition, 48 h
[1] = tested on: 786-0 renal
[2] = tested on: A549 NSCLC
[3] = tested on: ACHN renal
[4] = tested on: CCRF-CEM leukemia
[5] = tested on: COLO 205 colon
[6] = tested on: DLD-1 colon
[7] = tested on: DMS 114 small cell lung
[8] = tested on: DMS 273 small cell lung
[9] = tested on: EKVX NSCLC
[10] = tested on: HCC-2998 colon
[11] = tested on: HCT-116 colon
[12] = tested on: HCT-15 colon
[13] = tested on: HL-60(TB) leukemia
[14] = tested on: HOP-18 NSCLC
[15] = tested on: HOP-62 NSCLC
[16] = tested on: HOP-92 NSCLC
[17] = tested on: HT29 colon
[18] = tested on: IGROV1 ovarian
[19] = tested on: K-562 leukemia
[20] = tested on: KM12 colon
[21] = tested on: KM20L2 colon
[22] = tested on: LXFL 529 NSCLC
[23] = tested on: M14 melanoma
[24] = tested on: M19-MEL melanoma
[25] = tested on: MALME-3M melanoma
[26] = tested on: MOLT-4 leukemia
[27] = tested on: NCI-H226 lung
[28] = tested on: NCI-H23 lung
[29] = tested on: NCI-H460 lung
[30] = tested on: NCI-H522 lung
[31] = tested on: OVCAR-4 ovarian
[32] = tested on: OVCAR-5 ovarian
[33] = tested on: OVCAR-8 ovarian
[34] = tested on: RPMI-8226 leukemia
[35] = tested on: RXF 393 renal
[36] = tested on: SF-268 CNS
[37] = tested on: SF-295 CNS
[38] = tested on: SF-539 CNS
[39] = tested on: SK-MEL-2 melanoma
[40] = tested on: SK-MEL-28 melanoma
[41] = tested on: SK-MEL-5 melanoma
[42] = tested on: SK-OV-3 ovarian
[43] = tested on: SN12C renal
[44] = tested on: SNB-19 CNS
[45] = tested on: SNB-75 CNS
[46] = tested on: SNB-78 CNS
[47] = tested on: SR leukemia
[48] = tested on: SW-620 colon
[49] = tested on: U251 CNS
[50] = tested on: UACC-257 melanoma
[51] = tested on: UACC-62 melanoma
[52] = tested on: UO-31 renal
[53] = tested on: A498 renal
[54] = tested on: CAKI-1 renal
[55] = tested on: LOX IMVI melanoma
[56] = tested on: OVCAR-3 ovarian
[57] = tested on: TK-10 renal

Compound: N/N=c1\c2ccccc2c2ccc3c4ccccc4/c(=N\N)c3c12
- TGI [1]: > 100 µM
- TGI [2]: > 100 µM
- TGI [3]: > 100 µM
- TGI [4]: > 100 µM
- TGI [5]: > 100 µM
- TGI [6]: > 100 µM
- TGI [7]: > 100 µM
- TGI [8]: > 100 µM
- TGI [9]: > 100 µM
- TGI [10]: > 100 µM
- TGI [11]: > 100 µM
- TGI [12]: > 100 µM
- TGI [13]: > 100 µM
- TGI [14]: > 100 µM
- TGI [15]: > 100 µM
- TGI [16]: > 100 µM
- TGI [17]: > 100 µM
- TGI [18]: > 100 µM
- TGI [19]: > 100 µM
- TGI [20]: > 100 µM
- TGI [21]: > 100 µM
- TGI [22]: > 100 µM
- TGI [23]: > 100 µM
- TGI [24]: > 100 µM
- TGI [25]: > 100 µM
- TGI [26]: > 100 µM
- TGI [27]: > 100 µM
- TGI [28]: > 100 µM
- TGI [29]: > 100 µM
- TGI [30]: > 100 µM
- TGI [31]: > 100 µM
- TGI [32]: > 100 µM
- TGI [33]: > 100 µM
- TGI [34]: > 100 µM
- TGI [35]: > 100 µM
- TGI [36]: > 100 µM
- TGI [37]: > 100 µM
- TGI [38]: > 100 µM
- TGI [39]: > 100 µM
- TGI [40]: > 100 µM
- TGI [41]: > 100 µM
- TGI [42]: > 100 µM
- TGI [43]: > 100 µM
- TGI [44]: > 100 µM
- TGI [45]: > 100 µM
- TGI [46]: > 100 µM
- TGI [47]: > 100 µM
- TGI [48]: > 100 µM
- TGI [49]: > 100 µM
- TGI [50]: > 100 µM
- TGI [51]: > 100 µM
- TGI [52]: > 100 µM

Compound: CCOC(=O)C1=C(C)N2CCOC2(C)C(C(=O)OC)C1c1cccc(Cl)c1 (centres undefined)
- TGI [1]: > 100 µM
- TGI [53]: > 100 µM
- TGI [2]: > 100 µM
- TGI [3]: > 100 µM
- TGI [54]: > 100 µM
- TGI [4]: > 100 µM
- TGI [5]: > 100 µM
- TGI [6]: > 100 µM
- TGI [7]: > 100 µM
- TGI [8]: > 100 µM
- TGI [9]: > 100 µM
- TGI [10]: > 100 µM
- TGI [11]: > 100 µM
- TGI [12]: > 100 µM
- TGI [13]: > 100 µM
- TGI [14]: > 100 µM
- TGI [15]: > 100 µM
- TGI [16]: > 100 µM
- TGI [17]: > 100 µM
- TGI [18]: > 100 µM
- TGI [19]: > 100 µM
- TGI [20]: > 100 µM
- TGI [21]: > 100 µM
- TGI [55]: > 100 µM
- TGI [22]: > 100 µM
- TGI [23]: > 100 µM
- TGI [24]: > 100 µM
- TGI [25]: > 100 µM
- TGI [28]: > 100 µM
- TGI [29]: > 100 µM
- TGI [30]: > 100 µM
- TGI [56]: > 100 µM
- TGI [32]: > 100 µM
- TGI [33]: > 100 µM
- TGI [34]: > 100 µM
- TGI [36]: > 100 µM
- TGI [37]: > 100 µM
- TGI [38]: > 100 µM
- TGI [39]: > 100 µM
- TGI [40]: > 100 µM
- TGI [41]: > 100 µM
- TGI [42]: > 100 µM
- TGI [43]: > 100 µM
- TGI [44]: > 100 µM
- TGI [45]: > 100 µM
- TGI [46]: > 100 µM
- TGI [47]: > 100 µM
- TGI [48]: > 100 µM
- TGI [57]: > 100 µM
- TGI [49]: > 100 µM
- TGI [50]: > 100 µM
- TGI [51]: > 100 µM
- TGI [52]: > 100 µM

Compound: CCCCCCCC/C=C/CCCCCCCC(=O)N(O)C1CC(n2cc(C)c(=O)[nH]c2=O)OC1CO (centres undefined)
- TGI [1]: 16 µM
- TGI [53]: 32.2 µM
- TGI [2]: 33.9 µM
- TGI [3]: 18 µM
- TGI [54]: 21.6 µM
- TGI [4]: 20.4 µM
- TGI [5]: 16.7 µM
- TGI [6]: 18.4 µM
- TGI [7]: 10.9 µM
- TGI [8]: 16.1 µM
- TGI [10]: 22.4 µM
- TGI [11]: 20.6 µM
- TGI [12]: 16.2 µM
- TGI [14]: 13.9 µM
- TGI [15]: 18.1 µM
- TGI [16]: 28.7 µM
- TGI [17]: 22.4 µM
- TGI [18]: 17.6 µM
- TGI [19]: 21 µM
- TGI [20]: 23.3 µM
- TGI [21]: 16.4 µM
- TGI [55]: 17.3 µM
- TGI [22]: 22.4 µM
- TGI [23]: 10.1 µM
- TGI [24]: 17.7 µM
- TGI [25]: 22 µM
- TGI [26]: 19.6 µM
- TGI [28]: 23.2 µM
- TGI [29]: 13.6 µM
- TGI [30]: 20.2 µM
- TGI [56]: 20.1 µM
- TGI [31]: 25 µM
- TGI [32]: 22.3 µM
- TGI [33]: 24.9 µM
- TGI [34]: 50.1 µM
- TGI [35]: 16.2 µM
- TGI [36]: 26.3 µM
- TGI [37]: 21.4 µM
- TGI [38]: 24.2 µM
- TGI [39]: 26.9 µM
- TGI [40]: 19.4 µM
- TGI [41]: 19.5 µM
- TGI [42]: 21.9 µM
- TGI [43]: 22.8 µM
- TGI [44]: 25.5 µM
- TGI [45]: 29.8 µM
- TGI [46]: 45.8 µM
- TGI [47]: 20.5 µM
- TGI [48]: 23.8 µM
- TGI [57]: 22.7 µM
- TGI [49]: 17 µM
- TGI [50]: 26.7 µM
- TGI [51]: 11 µM
- TGI [52]: 14.4 µM
